# Data as given in US12115156B2, “Compositions of CXCR4 inhibitors and methods of preparation and use” (X4 Pharmaceuticals, Inc., priority 2018, dated 2024).
# Key:
# [1] = Mutagenic Risk Assessment in accordance with ICH M7(R1); conditions: impurities in the synthetic process for X4P-001
# Protocol: The assessment included review of all raw materials, including key starting materials, as well as the potential and actual process impurities and degradation products. All assessments were carried out in accordance with ICH M7(R1) guidance.
# [2] = system: advanced clear-cell renal cell carcinoma; conditions: cited from earlier work; for objective response rate: nivolumab 3 mg/kg intravenously every two weeks or everolimus 10 mg tablet orally daily, previously treated patients, P<0.001
# [3] = Persistence of the imine impurity HPLC-MS peak in acidic aqueous media; type: physicochemical; conditions: X4P-001 solubilized in acidic aqueous media
# Excerpt: The imine impurity, I-1, and likely route of formation are shown in Scheme 1, below.
# in vivo = conditions: terminal half-life
# [4] = in vivo
# [5] = nivolumab compared to everolimus
molecule,measurement,setting,value
"ClCc1nc2ccccc2[nH]1 [I-8, 2-chloromethylbenzimidazole]",mutagenicity assessment,[1],potentially mutagenic
CC(C)(C)OC(=O)n1c(CI)nc2ccccc21 [I-11],mutagenicity assessment,[1],potentially mutagenic
nivolumab: fully human IgG4 monoclonal antibody binding to the programmed cell death 1 (PD-1) receptor,objective response rate,[2],25%
same,hazard ratio for death,[2]; [5],decreased
same,incidence of Grade 3 or 4 treatment-related adverse events,[2]; [5],lower
same,median overall survival,[2]; [5],longer
ICc1nc2ccccc2[nH]1 [I-10],mutagenicity assessment,[1],potentially mutagenic
"C=NCCCCN(Cc1nc2ccccc2[nH]1)[C@H]1CCCc2cccnc21 [I-1, (S)-N-((1H-benzo[d]imidazol-2-yl)methyl)-N-(4-(methyleneamino)butyl)-5,6,7,8-tetrahydroquinolin-8-amine]",stability of the impurity peak (RRT 1.13),[3],disappears after a few hours
NCCCCN(Cc1nc2ccccc2[nH]1)[C@H]1CCCc2cccnc21 [X4P-001],half-life,in vivo,12 to 24 h
same,terminal half-life,[4],approximately 14.5 hrs
"CC(C)(C)OC(=O)n1c(CCl)nc2ccccc21 [I-9, boc-2-chloromethylbenzimidazole]",mutagenicity assessment,[1],potentially mutagenic
CO[C@H]1C[C@@H]2CC[C@@H](C)[C@@](O)(O2)C(=O)C(=O)N2CCCC[C@H]2C(=O)O[C@H]([C@H](C)C[C@@H]2CC[C@@H](OCCO)[C@H](OC)C2)CC(=O)[C@H](C)/C=C(\C)[C@@H](O)[C@@H](OC)C(=O)[C@H](C)C[C@H](C)/C=C/C=C/C=C/1C [everolimus],objective response rate,[2],5%
